Test results published in paper PMC7217877, “N-AS-triggered SPMs are direct regulators of microglia in a model of Alzheimer’s disease” (Nature Communications, 2020).
Values joined by “and” are separate entries in the source; they are usually repeats but may differ in a detail not shown here. Equal entries are not always repeated.

Experiments:
APP/PS1 mice = test: microglial recruitment to Aβ plaques (Iba1/ThioS colocalization, Fig 5a); assay type: in vivo, mouse; settings: APP/PS1 + N-AS; cortex; individual values
Procedure: Thioflavin S (Sigma-Aldrich) staining was carried out according to previously described procedures. We used 6E10 (mouse, 1:100, Signet, SIG39300), anti-20G10 (mouse, 1:1000, provided by D. R. Howlett, GlaxoSmithKline, Harlow, Essex, UK) for Aβ42, anti-G30 (rabbit, 1:1000, provided by D. R. Howlett) for Aβ40, SMA (mouse, 1:400, Sigma-Aldrich, A2547), AT8 (mouse, 1:500, Thermo Fisher Scientific, MN1020), Caspase-3 (mouse, 1:200, Novus Biologicals, NB100-56708), ac-S565 (rabbit, 1:100), COX2 (mouse, 1:250, Thermo Fisher Scientific, 35-8200), Iba1 (rabbit, 1:500, Wako, 019-19941 and goat, Abcam, ab5076), NeuN (mouse, 1:500, Millipore, MAB177), GFAP (rabbit, 1:500, Dako, N1506 and chicken, 1:500, Abcam, ab4674), and Lamp1 (mouse, 1:200, Abcam, ab24170). The sections were analyzed with a laser-scanning confocal microscope (FV3000; Olympus) or with a BX51 microscope (Olympus). MetaMorph software (Molecular Devices) was used to quantification. Three-dimensional reconstruction of microglia was recorded and analyzed using IMARIS software (Bitplane)[11]. For the analysis of age-dependent microglial COX2^+ CX3CR1^+ cells in WT and APP/PS1 mice, COX2 (rabbit, 1:100, Abcam, ab15191) and CX3CR1 (mouse, 1:100, BioLegend, 149008) antibody were used and the images were acquired on Alexa 488 and APC Channel with performed using Operetta CLS and Analysis Software 4.5 (Perkin-Elmer). […]

neuron = test: sphingosine level in primary cells (UPLC); assay type: cell-based, C57BL/6 mice; settings: Ab 10mM, replicates
Procedure: To confirm the generation and roles of N-AS in neurons, cells from E18 C57BL/6 mice were prepared as previously described. Cortices were dissected and then dissociated followed by incubation in papain (Worthington) at 37 °C for 15 min. Neurons were plated on poly-L-lysine-coated coverslips with neuronal culture medium, serum-free Neurobasal medium (Gibco) containing 2% B27 supplements (Gibco), 1 mM Glutamax supplement (Gibco), and 100 U ml^−1 streptomycin/ 100 U ml^−1 penicillin (Gibco) at 37 °C in a humidified atmosphere of 5% CO2. […] Primary astrocyte cultures were prepared from C57BL/6 mice as described previously. In brief, after removal of the meninges, postnatal day 7 (P7) mouse brain tissues were minced and incubated in a rocking water bath at 37 °C for 30 min in the presence of 0.25% trypsin-EDTA (Sigma-Aldrich). […] The human microglia treated with Aβ 1–42 and/or zileuton was incubated with N-AS (2.5 μM, 2 h, Sigma-Aldrich, 01912), and were analyzed for the generation and roles of N-AS.
To quantify the sphingosine levels, the dried lipid extract was resuspended in 0.2% Igepal CA-630. […] The fluorescent sphingosine was monitored using a model 474 scanning fluorescence detector (Waters). Quantification of the sphingosine was calculated from sphingosine calibration curves using the Waters Millennium software.

Molecule	Aβ containing /Iba1-positive cells per plaque (APP/PS1 mice)	Aβ-positive Microglia/plaque (APP/PS1 mice)	sphingosine (Fig 3f) (neuron)
CCCCCCCCCCCCC/C=C/[C@@H](O)[C@H](CO)NC(C)=O [N-AS, N-((2S,3R,E)-1,3-Dihydroxyoctadec-4-en-2-yl)acetamide]	7.5498 and 5.551 and 5.112 and 5.2638 and 4.818 and 7.514	27.3068 and 32.6682 and 21.5669 and 18.8144 and 22.2826 and 28.6878	
Ab: Aβ 1–42 (Invitrogen, 03112) used to induce an AD environment in cells			0.1262 and 0.1156 and 0.1288 and 0.1301 and 0.1222 and 0.1295
